Laboratory results reported in publication PMC4493534 (Theranostics, 2015).

Key:
TSPO [1] = molecular target: TSPO (Rattus norvegicus, UniProt P16257); conditions: ischemic rat brain, previously published data; cited from earlier work
TSPO [2] = assay: In vitro autoradiography of postmortem human brain; format: binding; conditions: postmortem human temporal cortex sections, 0.5 nM radioligand

TSPO (Rattus norvegicus, UniProt P16257), sequence (P16257 whole entry): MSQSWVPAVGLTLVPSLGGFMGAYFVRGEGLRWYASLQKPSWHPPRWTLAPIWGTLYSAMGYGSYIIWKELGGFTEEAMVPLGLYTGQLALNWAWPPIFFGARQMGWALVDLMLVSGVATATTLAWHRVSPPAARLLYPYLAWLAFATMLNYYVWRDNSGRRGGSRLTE

Row | SMILES | apparent BPND (SRTM) (TSPO [1]) | binding ratio for HAB-1 to that of LAB-1, RB(H/L) (also printed RB(L/H)) (TSPO [2])
1 | CC[C@@H](C)N([11CH3])C(=O)c1cc2ccccc2c(-c2ccccc2Cl)n1 [(R)[^11C]PK11195] | 1.59 ± 0.33 | 
2 | CCN(Cc1ccccc1)C(=O)Cn1c(=O)n(C)c2cnc(-c3ccccc3)nc21 [[^11C]AC-5216] |  | ~4.60
3 | COc1ccc(O[11CH3])c(CN(C(C)=O)c2cc(F)ccc2Oc2ccccc2)c1 [[^11C]DAA1106] |  | ~1.19
